target: cAMP and cAMP-inhibited cGMP 3',5'-cyclic phosphodiesterase 10A (Homo sapiens, UniProt Q9Y233); assay: Enzyme Inhibition Assay: To check the inhibition profile, 5 μL of serial diluted compounds were incubated with 5 μL of diluted PDE10 enzyme (BPS Bioscience, San Diego, Calif.) or tissue homogenate in a 384-well polystyrene assay plate (Corning, Corning, N.Y.) for 30 min at room temperature. After incubation, 10 μL of diluted fluorescein labeled cAMP or cGMP substrate were added and incubated for 60 min at room temperature. The reaction was stopped by adding 60 μL of diluted binding reagents and plates were read on an Envision (Perkin Elmer, Waltham, Mass.) for time resolved fluorescence resonance energy transfer. The data were analyzed with GraphPad Prism (La Jolla, Calif.).
Sequence (Q9Y233 whole entry): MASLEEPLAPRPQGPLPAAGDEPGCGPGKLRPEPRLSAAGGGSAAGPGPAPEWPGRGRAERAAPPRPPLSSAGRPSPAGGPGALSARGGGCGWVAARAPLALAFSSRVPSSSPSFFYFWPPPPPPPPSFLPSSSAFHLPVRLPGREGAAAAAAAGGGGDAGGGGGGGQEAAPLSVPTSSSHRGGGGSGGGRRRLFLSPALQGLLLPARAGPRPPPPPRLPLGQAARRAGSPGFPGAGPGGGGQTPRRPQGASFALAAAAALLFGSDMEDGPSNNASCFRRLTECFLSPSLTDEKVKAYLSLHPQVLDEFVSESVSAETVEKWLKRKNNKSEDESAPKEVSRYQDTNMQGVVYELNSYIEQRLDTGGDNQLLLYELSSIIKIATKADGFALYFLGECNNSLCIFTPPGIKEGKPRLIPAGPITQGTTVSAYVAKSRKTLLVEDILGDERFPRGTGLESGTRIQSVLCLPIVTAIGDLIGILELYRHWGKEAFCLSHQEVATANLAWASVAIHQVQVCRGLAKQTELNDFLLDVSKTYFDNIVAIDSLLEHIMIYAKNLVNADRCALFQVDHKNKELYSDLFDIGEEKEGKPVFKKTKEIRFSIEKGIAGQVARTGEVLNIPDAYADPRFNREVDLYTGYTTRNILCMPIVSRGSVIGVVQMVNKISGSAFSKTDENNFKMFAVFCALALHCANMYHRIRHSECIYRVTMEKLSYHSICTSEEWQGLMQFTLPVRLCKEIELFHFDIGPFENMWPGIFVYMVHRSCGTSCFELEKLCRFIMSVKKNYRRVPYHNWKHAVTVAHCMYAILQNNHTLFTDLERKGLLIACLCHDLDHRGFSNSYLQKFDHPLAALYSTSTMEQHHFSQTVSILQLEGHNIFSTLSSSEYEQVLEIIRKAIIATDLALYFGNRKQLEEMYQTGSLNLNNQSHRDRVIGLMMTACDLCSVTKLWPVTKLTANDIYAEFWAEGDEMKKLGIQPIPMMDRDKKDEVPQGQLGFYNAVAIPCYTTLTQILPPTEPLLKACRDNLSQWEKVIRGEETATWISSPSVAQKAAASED

Compound	IC50 [nM]
COc1cnccc1-c1cccnc1Oc1ccc(C(=O)c2nc3ccccc3n2C)cc1	0.121
COc1cnccc1-c1cccnc1Oc1ccc(Nc2nc3ccccc3s2)cc1	0.747
COc1ccncc1-c1cccnc1Oc1ccc(C(=O)c2nc3ccccc3[nH]2)cc1	0.0725
O=C(c1ccc(Oc2ncccc2C2CCOC2)cc1)c1nc2ccccc2n1CCF (stereo unspecified)	2.29
COc1ccncc1-c1cccnc1Oc1ccc(Nc2nc3ccccc3s2)cc1	0.902
COc1ccnc(-c2cccnc2Oc2ccc(C(=O)c3nc4ccccc4[nH]3)cc2)c1	4.11
COc1ccnc(-c2cccnc2Oc2ccc(C(=O)c3nc4ccccc4n3C)cc2)c1	1.79
Cc1cnc(Oc2ccc(C(=O)c3nc4ccccc4[nH]3)cc2)c(-c2ccnc(C)c2)c1	1.38
Cc1cnc(Oc2ccc(C(=O)c3nc4ccccc4n3C)cc2)c(-c2ccnc(C)c2)c1	1.14
COc1ncc(-c2ccnc(F)c2)c(Oc2ccc(C(=O)c3nc4ccccc4[nH]3)cc2)n1	22.9
O=C(c1ccc(Oc2ncccc2C2CCNCC2)cc1)c1nc2ccccc2[nH]1	2.07

Reference: ChEMBL document CHEMBL3638462, “Pyridine and pyrimidine derivatives as phosphodiesterase 10 inhibitors” (2014)
